This is an account of results in PubChem BioAssay AID179 (DTP/NCI, 2004).

This test concerns CEM cells HIV-1 protection, formazan growth assay. Kind of test: NCI AIDS Antiviral Assay. The following applies: for IC50: measured here: growth of uninfected CEM cells. The method in brief: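 Soluble formazan readout of cell growth; CEM cells ± HIV-1; 5 drug concs. ≥50% protection → retest; ≥50% again = moderately active; reproducible 100% = confirmed active.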

Structures are written as SMILES. Values joined by “and” are separate entries in the source; they are usually repeats but may differ in a detail not shown here. Equal entries are not always repeated. Active and inactive are the calls of the source.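 How the source made its calls: active means compounds giving half or more protection of infected cells from virus-caused growth loss, again on retest; inactive means the rest.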

As to `Cc1nnc2n(c1=O)CCCN2C`, the EC50 was > 200 µM and the IC50 was > 200 µM.

Regarding `COc1cc(OC)c(/C=C\c2ccnc3ccccc23)c(OC)c1`, the EC50 was > 200 µM and the IC50 was determined as 8.51 µM.

`COc1ccc(CCN2CCc3c(C)c(C#N)c4nc5ccccc5n4c32)cc1OC`: the EC50 was > 200 µM and the IC50 came out at 53.7 µM. On the same counts, the results for `CN(C)CC(=O)N1CC(COS(C)(=O)=O)c2ccc(O)cc21` (stereo not drawn) are > 20 µM and 3.47 µM.

`CCN(CC)CCOc1ccc(S(=O)(=O)c2ccc(OCCN(CC)CC)cc2)cc1`: the EC50 is > 200 µM and the IC50 was 39.8 µM.

For the molecule `O=C1CN(C(=O)C2CCCN2C(=O)C2CCCN2)C(=O)CN1` (stereo not drawn), the EC50 was > 200 µM and the IC50 was > 200 µM. `S=C(N/N=C\C=N/NC(=S)N1CCCCCC1)N1CCCCCC1`: the EC50 was > 100 µM and the IC50 was determined as 14.1 µM. For `COc1cc2nc(NCCCCCNC(=O)c3ccco3)nc(N)c2cc1OC`, the EC50 is > 575 µM and the IC50 is 35.5 µM.

As for `Clc1cccc(-n2cccc2)c1`, the EC50 was > 200 µM and the IC50 was > 200 µM. Consider `CC(C)OP(=O)(OC(C)C)C(=NCCO)NNc1ccc([N+](=O)[O-])cc1`, for which the EC50 is > 339 µM and the IC50 turned out to be 29.5 µM. On to `C[CH2][Sn]([CH2]C)([O]C(=O)c1c(F)cccc1F)[O][Sn]([CH2]C)([CH2]C)[O]C(=O)c1c(F)cccc1F`, for which the EC50 is > 72.4 µM and the IC50 amounted to 4.79 µM. For the molecule `CCCCCCCCCCCCCCCCN1CCC2SC3CN(CCCCCCCCCCCCCCCC)CCC3SC2C1` (stereo not drawn), the EC50 is > 100 µM and the IC50 was > 100 µM. Turning to `Clc1ccc(SSc2ccc(Cl)cn2)nc1`, the EC50 was > 200 µM and the IC50 worked out at 20.4 µM. For `CCC12C=C(C(=O)OC)N3c4ccccc4C4CCN(CCC1)C2C43` (stereo not drawn), the outcome was inactive.

As to `O=C1NC2NC3NC(=O)NC3NC2N1` (stereo not drawn), the EC50 is > 200 µM and the IC50 is > 200 µM. Consider `CC(C)(C)OC(=O)NCCCCC(NC(=O)c1ccccc1)C(N)=O` (stereo not drawn), for which the EC50 is > 200 µM and the IC50 was > 200 µM.

For the molecule `CC(C)(C)N/N=C(\C(=O)NC1=C(Cl)C(=O)c2ccccc2C1=O)C1C=CCS1(=O)=O` (stereo not drawn), the EC50 was > 209 µM and the IC50 stood at 12.9 µM. `CC1=C(O)C(=O)C(c2c(C)cc(C)c(Br)c2C)=C(O)C1=O`: the EC50 is > 115 µM and the IC50 was determined as 15.5 µM. For `COCCNC1CCC2(SCCS2)c2[nH]c3ccccc3c21` (stereo not drawn), the EC50 was > 200 µM and the concentration for half-maximal inhibition (IC50) amounted to 39.8 µM.

Regarding `C1CSCCSCCCS[C@@H]2CCCCC2SC1` (stereo partly drawn), the EC50 was > 100 µM and the IC50 was > 100 µM.

With `CN(C)c1c(-c2ccc(Cl)cc2)cc(-c2ccccc2)[nH]c1=O`, the EC50 was > 20.9 µM and the IC50 was > 20.9 µM. With `O=C1N[C@H]2c3c(Cl)sc(Cl)c3C(=O)[C@H]2O1`, the EC50 was > 20 µM and the 50% inhibitory concentration (IC50) was determined as 0.955 µM. Consider `CC(=O)NC1C(=O)N(Cc2ccccc2)[C@@H]1COC(C)(C)C` (stereo partly drawn), for which the EC50 was > 813 µM and the IC50 was > 813 µM.

Consider `CN(C)CCOC1(Cc2ccc(F)cc2)CCC(C(C)(C)C)CC1` (stereo not drawn), for which the EC50 is > 200 µM; the IC50 was 3.89 µM and 3.98 µM.

For `Cc1cccc(/C=N/N=C(\N)NO)n1`, the EC50 was > 692 µM and the IC50 stood at 141 µM. On to `COC(=O)c1ccccc1N1C(=O)Cc2ccccc2C1=O`, for which the result was inactive. As to `Cc1ccc(S(=O)(=O)OCC2COC(C)(C)O2)cc1` (stereo not drawn), the EC50 was > 871 µM and the IC50 was > 871 µM.

Regarding `CONc1ncnc2c1ncn2C1OC(CO)CC1F` (stereo not drawn), the EC50 was > 178 µM and the IC50 was > 178 µM.

In the case of `O=C(CCCCC[n+]1ccccc1)Sc1ccccc1C(=O)NCc1ccc2c(c1)OCO2`, the EC50 is > 34.7 µM and the IC50 worked out at 5.37 µM. Take `Cc1cccc(C)c1NC(=O)CCc1nnc2s/c(=C\c3ccc(Cl)cc3)c(=O)n12`: the EC50 is > 1.7 µM and the IC50 is > 1.7 µM. Regarding `CCC[CH2][Sn]([CH2]CCC)([O]C(=O)C1CCC(=O)N1)[O]C(=O)C1CCC(=O)N1` (stereo not drawn), the EC50 is > 38.9 µM and the IC50 was determined as 0.0912 µM. Regarding `CCCCc1ccc(Nc2nc3c(ncn3C3CC(O)C(CN=[N+]=[N-])O3)c(=O)[nH]2)cc1` (stereo not drawn), the EC50 was > 200 µM and the IC50 was > 200 µM. With `Nc1ccc(N=Nc2ccc(/C=C/c3ccc(N=Nc4ccc(N)c5cc(S(=O)(=O)O)ccc45)cc3S(=O)(=O)O)c(S(=O)(=O)O)c2)c2ccc(S(=O)(=O)O)cc12`, the EC50 was > 107 µM and the half-inhibitory concentration (IC50) was 30.2 µM. For `O=C1COC(C(=O)c2ccccc2)C(=O)N1` (stereo not drawn) the same measures were > 117 µM and > 117 µM. As to `CN(/N=C/c1ccc(Cl)cc1)C1=NCCCCN1`, the EC50 is > 200 µM and the IC50 was 87.1 µM. As to `CC(=O)Nc1ccc(/C=C/c2ccc(N=C=S)cc2S(=O)(=O)O)c(S(=O)(=O)O)c1`, the EC50 is > 21.9 µM and the IC50 is > 21.9 µM. Regarding `CN(C)/C=N\c1nn[nH]n1`, the EC50 was > 200 µM and the IC50 worked out at 3.63 µM. On the same counts, the results for `CNC(=O)OCC1=CC(=O)C(C)=CC1=O` are > 60.3 µM and 5.5 µM.

For `O=C(O)C(CS)NCc1c2ccccc2nc2ccccc12` (stereo not drawn), the outcome was inactive. `O=C1NC(=O)C2(CC2)C(=O)N1`: the EC50 was > 200 µM and the IC50 worked out at 13.2 µM. For `CN1c2ccccc2[C@@]23CCN4CC=CC5(CCC12CC5)C43` (stereo partly drawn) the same measures were > 178 µM and 7.41 µM. On the same counts, the results for `CN(C)P(=O)(c1ccccc1)c1ccccc1` are > 200 µM and > 200 µM. On the same counts, the results for `O=c1c2ccccc2[se]n1-c1ccccc1` are 1.62 µM and 17.8 µM. Regarding `CN(C(=O)C12C3C4(C(=O)O)C1(C(=O)N(C)C(C)(C)C)C1C2(C(=O)O)C3(C(=O)N(C)C(C)(C)C)C14C(=O)N(C)C(C)(C)C)C(C)(C)C` (stereo not drawn), the EC50 was > 151 µM and the IC50 is > 151 µM. `C[C@@H]1CC(O)C2(O)C13CC(OC(=O)[C@@H]3O)C1(O)C(=O)OCC12C` (stereo partly drawn): the EC50 was > 759 µM and the 50% inhibitory concentration (IC50) is > 759 µM.

`C1COCCOP2(N3CC3)=NP(N3CC3)(=NP(N3CC3)(N3CC3)=N2)OCCOCCO1` (stereo not drawn): the EC50 was > 200 µM and the IC50 is 21.4 µM.

As to `O=c1[nH][nH]c(=O)c2c1nc(SCc1ccc(Br)cc1)n2Cc1ccccc1`, the EC50 was > 214 µM and the IC50 was > 214 µM.

As for `FC(F)(F)c1nc(Cl)nc2nc[nH]c12`, the EC50 was > 200 µM and the IC50 came to 97.7 µM.

For the molecule `Cc1ccccc1C=C1C(=O)NC(=O)NC1=O`, the EC50 was > 407 µM and the IC50 is > 407 µM. For the molecule `CC(C)[C@@]12O[C@@H]1CC13OC1[C@@H](O)CC[C@@]32O` (stereo partly drawn), the EC50 is > 200 µM and the IC50 is > 200 µM.

Take `COc1cc2c(c(OC)c1OC)CCC1(C)C(=O)NN=C21` (stereo not drawn): the EC50 was > 871 µM and the IC50 was 275 µM.

Consider `Cc1cc(C)c(COC(=O)NS(=O)(=O)Nc2ccccc2)c(C)c1`, for which the EC50 was > 200 µM and the IC50 was 43.7 µM.

Consider `CN(C)c1ccc(Cc2cc(C(C)(C)C)cc(C(C)(C)C)c2O)cc1`, for which the outcome was inactive.

For `CCCCOC(=O)C(=O)/C(=C\n1c(=S)[nH]c2cc(C)ccc21)C(=O)C=C(C)C`, the EC50 was > 200 µM and the IC50 was > 200 µM.

With `C[Si]1(C)C(c2ccccc2)=CC2C(c3ccccc3)(c3ccccc3)OC21c1ccccc1` (stereo not drawn), the EC50 was > 4.27 µM and the IC50 was 1.17 µM.

Take `CN1C(=O)CCC2(c3ccccc3)CC=C(O)C=C12` (stereo not drawn): the EC50 is > 200 µM and the IC50 was > 200 µM. In the case of `CO[C@@H]1C2=CC=CC=C[C@H]2n2c(=O)n(-c3ccccc3)c(=O)n21`, the EC50 was > 162 µM and the IC50 stood at 81.3 µM.

Consider `CC(C)(C)[Si](C)(C)OCCc1ccccc1C1CC2(S(=O)(=O)c3ccccc3)ON1CC2S(=O)(=O)c1ccccc1` (stereo not drawn), for which the EC50 is > 16.2 µM and the IC50 is > 16.2 µM.

`Cc1sc2nc3n(c(=O)c2c1C)N=C(c1ccc([N+](=O)[O-])cc1)CS3`: the EC50 was > 200 µM and the IC50 was > 200 µM. As to `CCOC(=O)/C(=C\c1ccccc1OC)P(=O)(OCC)OCC`, the EC50 was > 724 µM and the half-maximal inhibitory concentration (IC50) was 13.2 µM. Take `CC1OC(c2ccc3c(OCc4ccccc4)cccc3c2O)CC(OCc2ccccc2)[C@H]1OCc1ccccc1` (stereo partly drawn): the EC50 is > 200 µM and the IC50 was > 200 µM. Take `CCC(=O)N1NC(=O)C(CC)(CC)C1=O`: the EC50 is > 200 µM and the half-inhibitory concentration (IC50) is > 200 µM. Turning to `O=[N+]([O-])C(/C=C(\Cl)n1nnc2ccccc21)=C(/Cl)n1nnc2ccccc21`, the EC50 was > 200 µM and the IC50 is > 200 µM.

On to `CC1CCCC(C(O)CC2CC(=O)N(c3ccccc3)C(=O)C2)C1=O` (stereo not drawn), for which the EC50 is > 200 µM and the IC50 is > 200 µM.

Take `C[N+](C)(C)CC(=O)N/N=C(/Cc1nc2c3c(ccc2[nH]c1=O)C(=O)c1ccccc1C3=O)C(=O)Nc1ccc(Cl)c(Cl)c1`: the EC50 is > 20.9 µM and the concentration for half-maximal inhibition (IC50) is > 20.9 µM. Regarding `CSc1cc(-c2ccccn2)nc(-c2ccccn2)c1.CSc1cc(-c2ccccn2)nc(-c2ccccn2)c1.[Mn+2].[O-][Cl+3]([O-])([O-])[O-]`, the EC50 was > 0.2 µM and the IC50 is 0.0631 µM. For `Cc1ccc(C2C(Cl)C(=O)N2n2cnc3ccccc3c2=O)cc1` (stereo not drawn) the same measures were > 39.8 µM and > 39.8 µM.

`COc1ccc(C(=O)/C=C/c2cc(C(C)(C)C)c(O)c(C(C)(C)C)c2)cc1`: the EC50 was > 7.41 µM and the IC50 was > 7.41 µM. `C[C@]12CC[C@H](OC3OC(CO)C(O)C(O)C3O)C[C@H]1CC[C@@H]1[C@@H]2CC[C@]2(C)[C@@H](C3=CCOC3=O)CC[C@]12O` (stereo partly drawn): the EC50 was > 100 µM and the IC50 stood at 0.0661 µM.

As to `COC(=O)C1CC23CCCN4CCC5(c6ccccc6N(C=O)C15CC2)C43` (stereo not drawn), the EC50 was > 70.8 µM and the IC50 is > 70.8 µM. For `Cc1oc2c(c(=O)c1C)CN(Cc1ccccc1)CC2`, the EC50 was > 331 µM and the IC50 was found to be 275 µM.

The term EC50 denotes the concentration that produces a half-maximal response. As a reminder, the IC50 is the concentration that inhibits the measured activity by half. A low value points to greater potency in that assay.
